In general, IC50 refers to the concentration that inhibits the measured activity by half.

Here are results for 23 compounds from ChEMBL document CHEMBL1150495, “Balanced angiotensin II receptor antagonists. I. The effects of biphenyl ortho-substitution on AT1/AT2 affinities” (Bioorg Med Chem Lett, 1994).

The target in assay [1] is T1, Type-2 angiotensin II receptor (Rattus norvegicus, UniProt P35351).
T1 sequence (P35351 whole entry): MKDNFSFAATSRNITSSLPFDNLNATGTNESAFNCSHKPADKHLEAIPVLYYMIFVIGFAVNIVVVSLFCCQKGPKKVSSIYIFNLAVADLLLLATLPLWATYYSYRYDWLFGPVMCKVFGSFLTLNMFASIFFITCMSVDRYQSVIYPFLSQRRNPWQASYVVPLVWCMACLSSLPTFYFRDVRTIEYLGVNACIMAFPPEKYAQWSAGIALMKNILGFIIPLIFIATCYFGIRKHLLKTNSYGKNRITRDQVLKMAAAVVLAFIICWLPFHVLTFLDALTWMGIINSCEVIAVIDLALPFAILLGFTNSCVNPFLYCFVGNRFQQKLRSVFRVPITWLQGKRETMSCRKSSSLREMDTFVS
The assay can be described thus: Displacement of [125I]- Ang II from angiotensin II AT2 receptor in rat adrenal cortical microsomes. The arrangement: species or system Microsome. A general note: Displacement assays read how much labelled ligand stays bound in the presence of the test substance.

Assay [2] deals with T2, Angiotensin II receptor (AT-1) type-1 (Rattus norvegicus, UniProt P29089+P25095).
T2 sequence (P29089 whole entry): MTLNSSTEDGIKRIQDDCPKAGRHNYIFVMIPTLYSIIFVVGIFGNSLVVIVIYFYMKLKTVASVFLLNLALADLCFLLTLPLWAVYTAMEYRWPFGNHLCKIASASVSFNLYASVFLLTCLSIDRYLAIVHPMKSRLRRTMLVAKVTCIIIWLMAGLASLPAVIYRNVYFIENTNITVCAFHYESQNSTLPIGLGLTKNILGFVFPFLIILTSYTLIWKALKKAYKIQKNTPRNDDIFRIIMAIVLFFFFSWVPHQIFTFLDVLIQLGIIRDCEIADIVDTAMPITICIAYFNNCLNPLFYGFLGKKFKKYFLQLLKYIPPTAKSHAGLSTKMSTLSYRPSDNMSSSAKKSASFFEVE
T2 sequence (P25095 whole entry): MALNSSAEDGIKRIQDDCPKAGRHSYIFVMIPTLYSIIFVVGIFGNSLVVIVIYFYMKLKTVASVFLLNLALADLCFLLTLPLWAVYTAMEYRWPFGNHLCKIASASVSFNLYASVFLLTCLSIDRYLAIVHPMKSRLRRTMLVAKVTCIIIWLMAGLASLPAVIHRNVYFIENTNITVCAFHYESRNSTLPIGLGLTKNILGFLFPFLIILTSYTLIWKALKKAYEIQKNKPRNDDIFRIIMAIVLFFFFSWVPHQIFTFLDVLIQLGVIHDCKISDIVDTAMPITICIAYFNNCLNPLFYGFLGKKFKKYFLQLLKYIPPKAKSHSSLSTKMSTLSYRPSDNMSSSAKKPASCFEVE
Put plainly: Displacement of [125I]- Ang II from angiotensin II AT1 receptor in rat adrenal cortical microsomes. The arrangement: species or system Microsome.

For assay [3], the system named is Rattus norvegicus. Put plainly: Reduction of blood pressure by 30 mmHg in renal hypertensive rats by intravenous administration. The format is functional.
The test system of assay [4] is Rattus norvegicus. The assay can be described thus: Effective dose to lower blood pressure by 30 mmHg in renal hypertensive rats by peroral administration. The format is functional. Conditions: po.
Assay [5] concerns the target Angiotensin II receptor (Homo sapiens) (UniProt P30556+P50052). Put plainly: Affinity towards angiotensin receptor was expressed as the ratio of Angiotensin II AT2 receptor over Angiotensin II AT1 receptor. In kind it is protein assay.
The test system of assay [6] is Rattus norvegicus. The assay can be described thus: Duration required to lower blood pressure by 30 mmHg in renal hypertensive rats at a dose of 3.0 mg/kg. In kind it is functional.
In assay [7] the target is T1, Type-2 angiotensin II receptor. The assay can be described thus: Compound was tested for the inhibition of angiotensin II AT2 receptor by displacement of [125I]- Ang II to rat adrenal cortical microsomes.

For `CCCCOC(=O)NS(=O)(=O)c1ccccc1-c1ccc(Cn2c(CCC)nc(CC)c2C(C)=O)cc1`, the figures for the IC50 in assay [1] and in assay [2] were 0.08 µM and 0.002 µM, respectively. In addition, the ED30 in the assay on Rattus norvegicus [3] was 0.26 mg/kg; in the assay with Rattus norvegicus [4], 0.25 mg/kg.
Turning to `CCCc1nc(CC)c(C=O)n1Cc1ccc(-c2ccccc2-c2nn[nH]n2)cc1Br`, the values for the IC50 in assay [1] and in assay [2] were 0.7 µM and 0.02 µM, respectively. The compound further returned an ED30 with Rattus norvegicus [3] of 1.05 mg/kg.
As to `CCCCOC(=O)NS(=O)(=O)c1ccccc1-c1ccc(Cn2c(CCC)nc(CC)c2C(=O)OC)c(F)c1`, the IC50 was 0.004 µM in assay [1] and 0.0006 µM in assay [2]. The ED30 with Rattus norvegicus [3] was 0.11 mg/kg; with Rattus norvegicus [4], less than 0.3 mg/kg.
Take `CCCCOC(=O)NS(=O)(=O)c1ccccc1-c1ccc(Cn2c(CCC)nc(CC)c2C(=O)OC)cc1`: the IC50 in assay [1] was 0.04 µM; in assay [2], 0.002 µM.
For the compound `CCCCOC(=O)NS(=O)(=O)c1ccccc1-c1ccc(Cn2c(CCC)nc(CC)c2C=O)c(C)c1`, the IC50 amounted to 0.009 µM in assay [1] and 0.003 µM in assay [2]. The ED30 with Rattus norvegicus [3] turned out to be 0.23 mg/kg; with Rattus norvegicus [4], 0.86 mg/kg.
In turn, `CCCCOC(=O)NS(=O)(=O)c1ccccc1-c1ccc(Cn2c(CCC)nc(CC)c2C(C)=O)c(F)c1` gave an IC50 in assay [1] of 0.003 µM. Also, the Ratio in assay [5] was found to be 3. For the same compound, the Duration in the assay on Rattus norvegicus [6] is more than 24 h. The ED30 in the assay with Rattus norvegicus [3] turned out to be 0.1 mg/kg; in the assay on Rattus norvegicus [4], 0.48 mg/kg.
For the compound `CCCCOC(=O)NS(=O)(=O)c1ccccc1-c1ccc(Cn2c(CCC)nc(CC)c2C(=O)OC)c(Cl)c1`, the IC50 in assay [1] amounted to 0.007 µM. The Ratio in assay [5] came to 2.3. Also, the Duration with Rattus norvegicus [6] is more than 24 h. Besides, the ED30 in the assay on Rattus norvegicus [3] was 0.51 mg/kg; in the assay on Rattus norvegicus [4], 0.44 mg/kg.
Taken in the same sequence, the figures for `CCCc1nc(CC)c(C(=O)OC)n1Cc1ccc(-c2ccccc2S(=O)(=O)NC(=O)OCCC(C)C)cc1F` were 0.001 µM, 1, more than 24 h, 0.12 mg/kg and 0.67 mg/kg.
Consider `CCCc1nc(CC)c(C=O)n1Cc1ccc(-c2ccccc2-c2nn[nH]n2)cc1Cl`, for which the IC50 in assay [1] was found to be 0.5 µM; in assay [2], 0.01 µM. The compound further had an ED30 with Rattus norvegicus [3] of 0.87 mg/kg.
As to `CCCc1nc(CC)c(C=O)n1Cc1ccc(-c2ccccc2S(=O)(=O)NC(=O)c2ccccc2)cc1`, the IC50 turned out to be 0.5 µM in assay [1] and 0.0024 µM in assay [2].
For the compound `CCCCOC(=O)NS(=O)(=O)c1ccccc1-c1ccc(Cn2c(CCC)nc(CC)c2C(=O)OC)c(C)c1`, the IC50 in assay [1] is 0.01 µM; in assay [2] it was 0.003 µM. For the same compound, the ED30 with Rattus norvegicus [3] is 0.15 mg/kg; in the assay on Rattus norvegicus [4], 0.56 mg/kg.
The matching figures for `CCCCOC(=O)NS(=O)(=O)c1ccccc1-c1ccc(Cn2c(CCC)nc(CC)c2C(C)=O)c(Cl)c1`: 0.012 µM, 0.006 µM, 0.11 mg/kg and 0.96 mg/kg.
Take `CCCCOC(=O)NS(=O)(=O)c1ccccc1-c1ccc(Cn2c(CCC)nc(CC)c2C(C)=O)c(C)c1`: the values for the IC50 in assay [1] and in assay [2] were 0.02 µM and 0.002 µM, respectively. Further, the ED30 in the assay with Rattus norvegicus [3] came to 0.24 mg/kg; in the assay with Rattus norvegicus [4], 0.55 mg/kg.
The matching figures for `CCCCOC(=O)NS(=O)(=O)c1ccccc1-c1ccc(Cn2c(CCC)nc(CC)c2C=O)cc1`: 0.01 µM, 0.002 µM, 0.23 mg/kg and 0.18 mg/kg.
The matching figures for `CCCCOC(=O)NS(=O)(=O)c1ccccc1-c1ccc(Cn2c(CCC)nc(CC)c2C=O)c(F)c1`: 0.002 µM, 0.0007 µM, 0.13 mg/kg and less than 1 mg/kg.
`CCCc1nc(CC)c(C=O)n1Cc1ccc(-c2ccccc2-c2nn[nH]n2)cc1`: the half-maximal inhibitory concentration (IC50) in assay [1] is more than 10 µM; in assay [2] it was 0.002 µM. In addition, the ED30 with Rattus norvegicus [3] was 0.04 mg/kg.
Take `CCCCOC(=O)NS(=O)(=O)c1ccccc1-c1ccc(Cn2c(CCC)nc(CC)c2C(=O)OC)c(Br)c1`: the IC50 in assay [1] amounted to 0.02 µM; in assay [2] it was 0.002 µM.
The matching figures for `CCCCOC(=O)NS(=O)(=O)c1ccccc1-c1ccc(Cn2c(CCC)nc(CC)c2C(=O)OC)c([N+](=O)[O-])c1`: 0.02 µM and 0.007 µM.
In the case of `CCCc1nc(C(F)(F)C(F)(F)F)c(C(=O)O)n1Cc1ccc(-c2ccccc2-c2nn[nH]n2)cc1Br`, the IC50 in assay [7] is 0.08 µM.
As to `CCCc1nc(CC)c(C=O)n1Cc1ccc(-c2ccccc2-c2nn[nH]n2)cc1F`, the figures for the IC50 in assay [1] and in assay [2] were 3 µM and 0.007 µM, respectively. The same compound came in with an ED30 with Rattus norvegicus [3] of 0.17 mg/kg.
Take `CCCc1nc(CC)c(C=O)n1Cc1ccc(-c2ccccc2-c2nn[nH]n2)cc1C`: the IC50 in assay [1] came to 1 µM; in assay [2] it was 0.04 µM. This compound also yielded an ED30 with Rattus norvegicus [3] of 1.4 mg/kg.
In the case of `CCCc1nc(C(F)(F)C(F)(F)F)c(C(=O)O)n1Cc1ccc(-c2ccccc2-c2nn[nH]n2)cc1`, the IC50 in assay [1] is more than 10 µM; in assay [2], 0.003 µM.
The matching figures for `CCCNC(=O)NS(=O)(=O)c1ccccc1-c1ccc(Cn2c(CCC)nc(SC)c2C(=O)O)cc1`: 0.775 µM and 0.0003 µM.
